Measured values: the supplement of paper PMC10307832

Tests used:
Assay in all cases: relative viability (nuclei count vs DMSO), 5 days (fraction); higher = more cells survive
[1] = compound: CC1=C(C(=NN1)C)CC2=C(C3=C(S2)N(C(=O)N(C3=O)C)CC(C)C)C(=O)N4C[C@@H](CO4)O + COc1cc2c(Oc3ccc(NC(=O)C4(C(=O)Nc5ccc(F)cc5)CC4)cc3F)ccnc2cc1OCCCN1CCOCC1 [Foretinib] (partner 0.25 µM)
Summary of the method: (§1)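 Dosing by pin tool came one day after lung cancer cell lines were seeded in 1536-well plates, using either one drug or a fixed anchor-drug dose plus five library-drug doses (not always all listed) in √10 steps. After 5 days, nuclei were counted on 4× images. Relative viability is treated-well nuclei count divided by vehicle-well nuclei count, and values are medians of duplicate plates.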

[2] = compound: CC1=C(C(=NN1)C)CC2=C(C3=C(S2)N(C(=O)N(C3=O)C)CC(C)C)C(=O)N4C[C@@H](CO4)O + CS(=O)(=O)CCNCc1ccc(-c2ccc3ncnc(Nc4ccc(OCc5cccc(F)c5)c(Cl)c4)c3c2)o1 [Lapatinib] (partner 2 µM)
Summary of the method: as §1

IDH-C35 + OSI-027 = compound: Cc1ccccc1C(C(=O)NC1CCCCC1)N(C(=O)Cn1ccnc1C)c1cccc(F)c1 [IDH-C35] + COc1cccc2cc(-c3nc([C@H]4CC[C@H](C(=O)O)CC4)n4ncnc(N)c34)[nH]c12 [OSI-027] (partner 0.5 µM)
Summary of the method: as §1

IDH-C35 + AZD7762 = compound: Cc1ccccc1C(C(=O)NC1CCCCC1)N(C(=O)Cn1ccnc1C)c1cccc(F)c1 [IDH-C35] + NC(=O)Nc1cc(-c2cccc(F)c2)sc1C(=O)N[C@H]1CCCNC1 [AZD7762] (partner 0.2 µM)
Summary of the method: as §1

| Cell Line | relative viability ([1]; first compound 0.0025 µM) | relative viability ([1]; first compound 0.007906 µM) | relative viability ([1]; first compound 0.025 µM) | relative viability ([1]; first compound 0.07906 µM) | relative viability ([1]; first compound 0.25 µM) | relative viability ([2]; first compound 0.0025 µM) | relative viability ([2]; first compound 0.007906 µM) | relative viability ([2]; first compound 0.025 µM) | relative viability ([2]; first compound 0.07906 µM) | relative viability ([2]; first compound 0.25 µM) | relative viability (IDH-C35 + OSI-027; first compound 0.08 µM) | relative viability (IDH-C35 + OSI-027; first compound 0.253 µM) | relative viability (IDH-C35 + OSI-027; first compound 0.8 µM) | relative viability (IDH-C35 + OSI-027; first compound 2.53 µM) | relative viability (IDH-C35 + OSI-027; first compound 8 µM) | relative viability (IDH-C35 + AZD7762; first compound 0.08 µM) | relative viability (IDH-C35 + AZD7762; first compound 0.253 µM) | relative viability (IDH-C35 + AZD7762; first compound 0.8 µM) | relative viability (IDH-C35 + AZD7762; first compound 2.53 µM) | relative viability (IDH-C35 + AZD7762; first compound 8 µM) |
| --- | --- | --- | --- | --- | --- | --- | --- | --- | --- | --- | --- | --- | --- | --- | --- | --- | --- | --- | --- | --- |
| 201T | 1.18 | 1.16 | 1.02 | 1.11 | 1.2 | 1.05 | 1 | 1.03 | 0.986 | 1.06 | 0.845 | 0.75 | 0.681 | 0.802 | 0.777 | 0.62 | 0.638 | 0.615 | 0.514 | 0.603 |
| A549 | 1.03 | 1.02 | 0.906 | 1 | 1.1 | 1.08 | 1.07 | 1.04 | 0.976 | 1.08 | – | – | – | – | – | – | – | – | – | – |
| A-427 | 1.29 | 1.22 | 0.937 | 1.11 | 1.14 | 1 | 1.09 | 0.679 | 1.02 | 1.08 | 0.477 | 0.49 | 0.463 | 0.471 | 0.448 | 0.709 | 0.725 | 0.687 | 0.679 | 0.707 |
| ABC-1 | 1.02 | 1.06 | 0.955 | 1.07 | 1 | 1.5 | 0.918 | 1.12 | 0.92 | 0.823 | 0.528 | 0.516 | 0.582 | 0.531 | 0.441 | 0.779 | 0.874 | 0.739 | 0.744 | 1.01 |
| BEN | 0.666 | 0.629 | 0.577 | 0.661 | 0.596 | 0.669 | 0.672 | 0.629 | 0.526 | 0.741 | 0.308 | 0.318 | 0.298 | 0.328 | 0.261 | 0.572 | 0.772 | 0.679 | 0.586 | 0.683 |
| CAL-12T | 1.08 | 1.3 | 1.05 | 1.25 | 1.17 | 0.822 | 0.82 | – | 0.837 | 0.766 | 0.642 | 0.759 | 0.667 | 0.704 | 0.489 | 0.545 | 0.569 | 0.686 | 0.589 | 0.577 |
| COR-L23 | 0.947 | 1.07 | 0.8 | 0.87 | 0.846 | 0.883 | 0.846 | 0.656 | 0.826 | 0.923 | 0.843 | 0.696 | 0.861 | 0.829 | 0.731 | – | – | – | – | – |
| COR-L 105 | 1.1 | 0.899 | 0.974 | 1.03 | 1.06 | 0.36 | 0.422 | 0.381 | 0.302 | 0.369 | 0.588 | 0.771 | 0.735 | 0.727 | 0.628 | – | – | – | – | – |
| Calu-6 | 0.984 | 0.813 | 0.715 | 0.809 | 0.897 | 1.13 | 1.06 | 0.947 | 1.04 | 1.19 | – | – | – | – | – | – | – | – | – | – |
| ChaGo-K-1 | 0.886 | 0.979 | 0.888 | 0.914 | 0.968 | – | – | – | – | – | 0.604 | 0.523 | 0.529 | 0.637 | 0.572 | 0.97 | 0.928 | 0.899 | 0.819 | 0.818 |
| EBC-1 | 0.117 | 0.107 | 0.12 | 0.107 | 0.103 | 0.201 | 0.204 | 0.217 | 0.203 | 0.204 | – | – | – | – | – | – | – | – | – | – |
| EKVX | 0.884 | 0.736 | 0.69 | 0.732 | 0.744 | 0.251 | 0.198 | 0.203 | 0.524 | 0.191 | 0.752 | 0.641 | 0.646 | 0.657 | 0.68 | 0.75 | 0.819 | 0.725 | 0.803 | 0.756 |
| EMC-BAC-2 | 1.04 | 1.09 | 1.07 | 1.08 | 1.04 | 0.604 | 0.987 | 0.907 | 0.861 | 0.957 | 0.364 | 0.366 | 0.383 | 0.39 | 0.385 | 1.1 | 1.12 | 1.16 | 1.18 | 1.16 |
| EPLC-272H | 0.73 | 0.618 | 0.765 | 0.657 | 0.643 | 1.08 | 0.736 | 0.907 | 1.19 | 0.937 | 0.26 | 0.282 | 0.268 | 0.273 | 0.257 | 0.387 | 0.266 | 0.215 | – | 0.305 |
| H3255 | 1.03 | 0.968 | 0.784 | 0.802 | 0.775 | 0.24 | 0.244 | 0.25 | 0.241 | 0.223 | 0.554 | 0.534 | 0.581 | 0.661 | 0.647 | 0.814 | 0.947 | 0.924 | 0.88 | 0.829 |
| HARA | 1 | 1.01 | 0.84 | 0.656 | 0.984 | 0.664 | 0.81 | 0.637 | 0.671 | 0.696 | 0.607 | 0.735 | 0.484 | – | 0.405 | 0.362 | 0.422 | 0.318 | 0.22 | 0.383 |
| HCC-15 | 1.05 | 0.989 | 0.961 | 1.03 | 1.2 | 0.941 | 0.814 | 0.786 | 0.82 | 0.899 | 0.632 | 0.656 | 0.614 | – | 0.604 | 1.33 | 1.1 | 1.08 | – | 1.35 |
| HCC-44 | – | – | – | – | – | 1.01 | 1.1 | 0.988 | 0.908 | 1.11 | 0.538 | 0.641 | 0.595 | 0.61 | 0.625 | 1 | 0.982 | 0.999 | 1.03 | 1.01 |
